In one test the target is T1, p300 (Homo sapiens, UniProt Q09472).
T1 construct: host or cells: A549 P300 HiBit cells
Briefly: P300 degradation, HiBit technology in A549 P300 HiBit cells (2 h). The format is cell-based. The following applies: 2 hrs post treatment; for Dmax: A549, A549 P300 HiBit cells; for DC50: A549 P300 HiBit cells. The method in brief:
(§1)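 A549 cells carrying HiBit-tagged p300 or CBP, seeded overnight at 37 °C/5% CO2, then treated with serial compound dilutions from 10 mM DMSO stocks. Incubation was 2 h for p300 and 24 h for CBP, followed by HiBit lytic detection reagent for 10 min at room temperature. Luminescence read gave degradation potency and Dmax.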

The next test has as its target T2, CBP (Homo sapiens, UniProt Q92793).
T2 construct: host or cells: A549 CBP HiBit cells
Briefly: CBP degradation, HiBit technology in A549 CBP HiBit cells (24 h). The format is cell-based. The following applies: 24 hrs post treatment. The method in brief: as §1

T2 sequence (Q92793 whole entry): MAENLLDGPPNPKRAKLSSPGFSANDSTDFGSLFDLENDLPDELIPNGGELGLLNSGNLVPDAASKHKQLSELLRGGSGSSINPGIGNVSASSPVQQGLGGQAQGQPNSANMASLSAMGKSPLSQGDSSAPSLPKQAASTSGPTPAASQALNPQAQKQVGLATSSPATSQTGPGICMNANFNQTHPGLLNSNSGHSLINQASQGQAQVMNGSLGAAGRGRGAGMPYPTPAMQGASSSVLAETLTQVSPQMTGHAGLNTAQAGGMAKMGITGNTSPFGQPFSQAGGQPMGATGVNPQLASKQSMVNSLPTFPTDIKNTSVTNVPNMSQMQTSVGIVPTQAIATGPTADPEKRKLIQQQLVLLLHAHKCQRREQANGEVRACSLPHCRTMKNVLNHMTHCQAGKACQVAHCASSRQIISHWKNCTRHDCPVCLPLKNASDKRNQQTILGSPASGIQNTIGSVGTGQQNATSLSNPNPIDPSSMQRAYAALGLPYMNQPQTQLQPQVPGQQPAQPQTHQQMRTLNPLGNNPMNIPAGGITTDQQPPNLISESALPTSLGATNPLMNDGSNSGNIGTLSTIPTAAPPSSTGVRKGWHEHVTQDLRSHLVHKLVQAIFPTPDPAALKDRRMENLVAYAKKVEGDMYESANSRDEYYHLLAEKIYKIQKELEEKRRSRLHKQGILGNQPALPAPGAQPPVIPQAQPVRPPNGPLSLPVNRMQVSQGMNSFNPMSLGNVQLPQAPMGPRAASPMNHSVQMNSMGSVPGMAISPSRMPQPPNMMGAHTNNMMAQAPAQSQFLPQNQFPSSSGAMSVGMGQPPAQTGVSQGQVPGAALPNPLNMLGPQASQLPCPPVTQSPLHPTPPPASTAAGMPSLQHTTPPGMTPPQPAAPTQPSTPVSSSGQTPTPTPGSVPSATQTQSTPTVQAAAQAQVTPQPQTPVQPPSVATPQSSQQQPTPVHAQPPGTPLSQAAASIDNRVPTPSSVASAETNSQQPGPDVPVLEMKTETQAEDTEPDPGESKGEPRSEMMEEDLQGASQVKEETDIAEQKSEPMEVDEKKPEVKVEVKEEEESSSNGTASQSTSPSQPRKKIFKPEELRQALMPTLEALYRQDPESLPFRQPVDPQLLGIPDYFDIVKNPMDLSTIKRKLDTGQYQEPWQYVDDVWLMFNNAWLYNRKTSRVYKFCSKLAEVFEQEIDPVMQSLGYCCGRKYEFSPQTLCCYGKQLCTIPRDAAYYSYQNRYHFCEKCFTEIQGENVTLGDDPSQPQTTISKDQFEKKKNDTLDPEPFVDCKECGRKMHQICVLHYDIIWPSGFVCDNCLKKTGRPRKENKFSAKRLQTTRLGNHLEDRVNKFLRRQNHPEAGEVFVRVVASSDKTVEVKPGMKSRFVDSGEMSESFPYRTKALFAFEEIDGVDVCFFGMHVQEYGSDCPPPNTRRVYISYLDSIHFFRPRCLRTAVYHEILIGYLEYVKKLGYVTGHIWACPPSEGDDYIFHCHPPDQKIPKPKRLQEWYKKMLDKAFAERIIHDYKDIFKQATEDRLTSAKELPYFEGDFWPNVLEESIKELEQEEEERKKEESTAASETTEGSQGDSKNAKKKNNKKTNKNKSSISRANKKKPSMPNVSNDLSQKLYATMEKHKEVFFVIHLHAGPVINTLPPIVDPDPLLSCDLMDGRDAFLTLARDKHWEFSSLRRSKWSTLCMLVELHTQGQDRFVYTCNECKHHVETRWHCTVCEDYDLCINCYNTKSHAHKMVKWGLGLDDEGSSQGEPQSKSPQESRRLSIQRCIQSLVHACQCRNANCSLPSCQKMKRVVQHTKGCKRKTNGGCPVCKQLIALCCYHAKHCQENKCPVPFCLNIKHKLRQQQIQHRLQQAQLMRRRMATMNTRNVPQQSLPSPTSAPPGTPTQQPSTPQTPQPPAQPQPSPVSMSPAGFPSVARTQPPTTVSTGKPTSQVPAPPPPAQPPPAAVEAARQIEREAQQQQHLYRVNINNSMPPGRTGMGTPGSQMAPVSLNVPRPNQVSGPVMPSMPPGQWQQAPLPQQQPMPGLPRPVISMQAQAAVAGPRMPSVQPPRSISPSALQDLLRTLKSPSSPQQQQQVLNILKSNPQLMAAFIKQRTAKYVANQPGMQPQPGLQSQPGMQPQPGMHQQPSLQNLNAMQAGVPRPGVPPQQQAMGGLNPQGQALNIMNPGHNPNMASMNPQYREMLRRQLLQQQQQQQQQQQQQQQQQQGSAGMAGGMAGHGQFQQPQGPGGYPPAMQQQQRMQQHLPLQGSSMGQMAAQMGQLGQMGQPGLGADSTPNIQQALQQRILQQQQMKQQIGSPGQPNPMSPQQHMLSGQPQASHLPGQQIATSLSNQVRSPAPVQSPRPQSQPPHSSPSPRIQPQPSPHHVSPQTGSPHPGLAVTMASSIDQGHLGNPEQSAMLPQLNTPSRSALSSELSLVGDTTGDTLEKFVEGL
T1 sequence (Q09472 whole entry): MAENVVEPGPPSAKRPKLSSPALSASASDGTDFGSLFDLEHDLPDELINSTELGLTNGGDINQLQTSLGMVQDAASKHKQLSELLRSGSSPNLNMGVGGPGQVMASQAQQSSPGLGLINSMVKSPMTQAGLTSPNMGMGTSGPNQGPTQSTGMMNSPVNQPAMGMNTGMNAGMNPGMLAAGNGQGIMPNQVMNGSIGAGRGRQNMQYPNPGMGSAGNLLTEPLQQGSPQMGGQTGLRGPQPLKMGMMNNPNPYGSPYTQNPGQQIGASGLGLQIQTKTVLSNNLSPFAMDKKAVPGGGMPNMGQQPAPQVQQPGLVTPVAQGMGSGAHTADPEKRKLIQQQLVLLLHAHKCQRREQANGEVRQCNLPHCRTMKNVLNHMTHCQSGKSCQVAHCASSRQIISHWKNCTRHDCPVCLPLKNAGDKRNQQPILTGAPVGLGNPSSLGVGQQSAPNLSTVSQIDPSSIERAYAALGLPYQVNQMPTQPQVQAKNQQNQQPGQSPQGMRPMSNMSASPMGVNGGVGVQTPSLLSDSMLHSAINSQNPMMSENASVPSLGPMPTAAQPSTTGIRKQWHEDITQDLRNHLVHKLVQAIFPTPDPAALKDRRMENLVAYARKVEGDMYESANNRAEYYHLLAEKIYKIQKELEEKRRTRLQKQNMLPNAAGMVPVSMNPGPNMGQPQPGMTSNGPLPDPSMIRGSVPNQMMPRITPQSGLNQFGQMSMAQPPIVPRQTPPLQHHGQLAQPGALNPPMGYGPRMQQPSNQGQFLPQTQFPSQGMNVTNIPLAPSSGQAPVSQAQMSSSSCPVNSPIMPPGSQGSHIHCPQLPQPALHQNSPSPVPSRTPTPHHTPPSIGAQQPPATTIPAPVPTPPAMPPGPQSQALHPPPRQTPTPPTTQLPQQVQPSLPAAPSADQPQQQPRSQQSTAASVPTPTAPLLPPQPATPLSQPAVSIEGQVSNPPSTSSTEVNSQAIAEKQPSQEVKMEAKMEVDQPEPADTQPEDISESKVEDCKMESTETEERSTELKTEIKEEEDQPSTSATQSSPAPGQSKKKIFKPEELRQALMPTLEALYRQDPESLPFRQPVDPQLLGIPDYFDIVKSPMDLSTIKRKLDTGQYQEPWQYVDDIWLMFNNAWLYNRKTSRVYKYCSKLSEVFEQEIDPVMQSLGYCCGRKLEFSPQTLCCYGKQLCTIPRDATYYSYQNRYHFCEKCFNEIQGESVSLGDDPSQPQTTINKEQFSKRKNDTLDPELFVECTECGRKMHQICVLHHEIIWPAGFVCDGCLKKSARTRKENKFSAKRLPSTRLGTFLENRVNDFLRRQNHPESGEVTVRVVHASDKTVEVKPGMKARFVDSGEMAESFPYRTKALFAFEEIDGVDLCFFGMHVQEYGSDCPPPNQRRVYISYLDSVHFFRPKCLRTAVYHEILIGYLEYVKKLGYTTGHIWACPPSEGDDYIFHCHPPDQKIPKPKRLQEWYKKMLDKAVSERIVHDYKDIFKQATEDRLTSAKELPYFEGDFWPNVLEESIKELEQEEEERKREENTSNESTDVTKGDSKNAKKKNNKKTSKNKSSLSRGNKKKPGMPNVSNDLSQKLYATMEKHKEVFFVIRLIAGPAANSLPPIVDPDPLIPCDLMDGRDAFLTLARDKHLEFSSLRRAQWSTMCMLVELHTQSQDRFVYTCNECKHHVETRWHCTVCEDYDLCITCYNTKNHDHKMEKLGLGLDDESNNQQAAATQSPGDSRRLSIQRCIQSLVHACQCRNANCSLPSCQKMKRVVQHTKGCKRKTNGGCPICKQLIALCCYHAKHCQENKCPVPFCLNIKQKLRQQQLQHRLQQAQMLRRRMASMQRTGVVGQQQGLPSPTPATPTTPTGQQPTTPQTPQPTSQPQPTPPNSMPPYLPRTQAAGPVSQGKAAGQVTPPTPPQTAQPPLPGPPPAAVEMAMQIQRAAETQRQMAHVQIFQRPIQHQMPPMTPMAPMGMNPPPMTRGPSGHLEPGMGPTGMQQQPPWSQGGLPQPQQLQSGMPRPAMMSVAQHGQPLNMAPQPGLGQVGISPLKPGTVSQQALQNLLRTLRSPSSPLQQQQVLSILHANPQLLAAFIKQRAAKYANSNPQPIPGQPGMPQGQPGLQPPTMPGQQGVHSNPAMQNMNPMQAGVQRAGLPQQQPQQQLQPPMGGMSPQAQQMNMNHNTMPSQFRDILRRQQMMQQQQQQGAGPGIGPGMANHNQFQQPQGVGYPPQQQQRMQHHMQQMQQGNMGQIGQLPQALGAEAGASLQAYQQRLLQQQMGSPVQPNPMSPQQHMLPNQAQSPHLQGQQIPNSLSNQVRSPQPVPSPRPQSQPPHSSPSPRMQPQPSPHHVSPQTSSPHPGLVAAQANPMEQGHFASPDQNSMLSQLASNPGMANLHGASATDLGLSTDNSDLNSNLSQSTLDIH

With `Cc1cc2c(-c3cn(C)c(=O)c4cc(-c5ccc(C(=O)NCC#Cc6cc7c(C8CCC(=O)NC8=O)cccc7o6)nc5)ncc34)nc(N3CCOCC3)cc2n(C)c1=O` (stereo not shown) [Example B131, 5-(8-(1,3-dimethyl-7-morpholino-2-oxo-1,2-dihydro-1,6-naphthyridin-5-yl)-6-methyl-5-oxo-5,6-dihydro-2,6-naphthyridin-3-yl)-N-(3-(4-(2,6-dioxopiperidin-3-yl)benzofuran-2-yl)prop-2-yn-1-yl)picolinamide], at p300, the greatest degradation seen (Dmax) is > 80% and the DC50 lay within 1 to 9.9 nM. Also, on CBP, the DC50 was > 1000 nM and the Dmax was < 20%.

`COc1nc(-c2cnc(C(=O)NCC#Cc3cc4c(C5CCC(=O)NC5=O)cccc4o3)c(C)c2)ncc1Nc1cc(C2CCOCC2)c2c(c1)n(C)c(=O)n2C` (stereo not shown) [Example A207, 5-(5-((1,3-dimethyl-2-oxo-7-(tetrahydro-2H-pyran-4-yl)-2,3-dihydro-1H-benzo[d]imidazol-5-yl)amino)-4-methoxypyrimidin-2-yl)-N-(3-(4-(2,6-dioxopiperidin-3-yl)benzofuran-2-yl)prop-2-yn-1-yl)-3-methylpicolinamide]: on p300, the greatest degradation seen (Dmax) is > 80% and the DC50 is < 1 nM. Further, at CBP, the half-maximal degradation concentration (DC50) lay within 100 to 999 nM and the maximal degradation (Dmax) is < 20%.

As for `Cc1cc2c(N3CCCc4nc(-c5ccc(C(=O)NCC#Cc6cc7cccc(C8CCC(=O)NC8=O)c7o6)nc5)ncc43)cc(C3CCOCC3)cc2n(C)c1=O` (stereo not shown) [Example B148, 5-(5-(1,3-dimethyl-2-oxo-7-(tetrahydro-2H-pyran-4-yl)-1,2-dihydroquinolin-5-yl)-5,6,7,8-tetrahydropyrido[3,2-d]pyrimidin-2-yl)-N-(3-(7-(2,6-dioxopiperidin-3-yl)benzofuran-2-yl)prop-2-yn-1-yl)picolinamide], at p300, the greatest degradation seen (Dmax) was in the range of 60 to 79% and the half-maximal degradation concentration (DC50) was 1 to 9.9 nM. For the same compound, on CBP, the DC50 was > 1000 nM and the Dmax is < 20%.

For `CN1CCN(c2nc(-c3cccc4cc(-c5ccc(C(=O)NCC#Cc6ccc7occ(C8CCC(=O)NC8=O)c7c6)nc5)ncc34)cc3c2n(C)c(=O)n3C)CC1` (stereo not shown) [Example A102, 5-(8-(1,3-dimethyl-4-(4-methylpiperazin-1-yl)-2-oxo-2,3-dihydro-1H-imidazo[4,5-c]pyridin-6-yl)iso-quinolin-3-yl)-N-(3-(3-(2,6-dioxopiperidin-3-yl)benzofuran-5-yl)prop-2-yn-1-yl) picolinamide], at p300, the Dmax is > 80% and the DC50 was < 1 nM. On CBP, the DC50 is > 1000 nM and the Dmax is < 20%.

Turning to `Cc1cc2c(N3CCCc4nc(-c5ccc(C(=O)NCC#Cc6ccc7occ(C8CCC(=O)NC8=O)c7c6)nc5)ncc43)cncc2n(C)c1=O` (stereo not shown) [Example B69, 5-(5-(1,3-dimethyl-2-oxo-1,2-dihydro-1,7-naphthyridin-5-yl)-5,6,7,8-tetrahydropyrido [3,2-d]pyrimidin-2-yl)-N-(3-(3-(2,6-dioxo-piperidin-3-yl)benzofuran-5-yl)prop-2-yn-1-yl)picolinamide], the Dmax was 40 to 59% at p300 and < 20% at CBP. Moreover, the half-maximal degradation concentration (DC50) was 1 to 9.9 nM at p300 and > 1000 nM at CBP.

For the compound `COc1cc(-c2ncc3c(n2)CCCN3c2cc(C3CCOCC3)cc3c2cc(C)c(=O)n3C)cnc1C(=O)NCC#Cc1ccc2occ(C3CCC(=O)NC3=O)c2c1` (stereo not shown) [Example B24, 5-(5-(1,3-dimethyl-2-oxo-7-(tetrahydro-2H-pyran-4-yl)-1,2-dihydroquinolin-5-yl)-5,6,7,8-tetrahydropyrido[3,2-d]pyrimidin-2-yl)-N-(3-(3-(2,6-dioxopiperidin-3-yl)benzofuran-5-yl)prop-2-yn-1-yl)-3-methoxypicolinamide], on p300, the Dmax was > 80% and the DC50 lay within 1 to 9.9 nM. For the same compound, on CBP, the half-maximal degradation concentration (DC50) is > 1000 nM and the Dmax was < 20%.

As to `Cc1cc2c(N3CCCc4nc(-c5ccc(C(=O)NCC#Cc6ccc7occ(C8CCC(=O)NC8=O)c7c6)nc5)ncc43)nc(N3CCOCC3)cc2n(C)c1=O` (stereo not shown) [Example B62, 5-(5-(1,3-dimethyl-7-morpholino-2-oxo-1,2-dihydro-1,6-naphthyridin-5-yl)-5,6,7,8-tetrahydropyrido[3,2-d]pyrimidin-2-yl)-N-(3-(3-(2,6-dioxopiperidin-3-yl)benzofuran-5-yl)prop-2-yn-1-yl)picolinamide], the figures for the Dmax on p300 and on CBP were > 80% and < 20%, respectively. The figures for the DC50 on p300 and on CBP were 1 to 9.9 nM and > 1000 nM, respectively.

With `CC(C)c1cc(-c2cccc3cc(-c4ccc(C(=O)NCC#Cc5cnc6c(c5)c(C5CCC(=O)NC5=O)nn6C)nc4)ncc23)cc2c1n(C)c(=O)n2C` (stereo not shown) [Example A221, N-(3-(3-(2,6-dioxo-piperidin-3-yl)-1-methyl-1H-pyrazolo [3,4-b]pyridin-5-yl)prop-2-yn-1-yl)-5-(8-(7-isopropyl-1,3-dimethyl-2-oxo-2,3-dihydro-1H-benzo[d]imidazol-5-yl)isoquinolin-3-yl)picolinamide], the greatest degradation seen (Dmax) is > 80% at p300 and < 20% on CBP. The DC50 on p300 is 1 to 9.9 nM; on CBP it was > 1000 nM.

On p300, `CC(C)c1cc(-c2cccc3cc(-c4ccc(C(=O)NCC#Cc5ccc6ccnc(C7CCC(=O)NC7=O)c6c5)nc4)ncc23)cc2c1n(C)c(=O)n2C` (stereo not shown) [Example A10, N-(3-(1-(2,6-Dioxopiperidin-3-yl)isoquinolin-7-yl)prop-2-yn-1-yl)-5-(8-(7-isopropyl-1,3-dimethyl-2-oxo-2,3-dihydro-1H-benzo[d]imidazol-5-yl)isoquinolin-3-yl)picolinamide] had a Dmax of 60 to 79% and a 50% degradation concentration (DC50) of 10 to 99 nM. Also, on CBP, the half-maximal degradation concentration (DC50) was > 1000 nM and the Dmax is < 20%.

For `CC(C)c1cc(C2=CC(C)(C)Oc3cc(-c4ccc(C(=O)NCC#Cc5ccc6occ(C7CCC(=O)NC7=O)c6c5)nc4)c(F)cc32)cc2c1n(C)c(=O)n2C` (stereo not shown) [Example A57, N-(3-(3-(2,6-dioxopiperidin-3-yl)benzofuran-5-yl)prop-2-yn-1-yl)-5-(6-fluoro-4-(7-isopropyl-1,3-dimethyl-2-oxo-2,3-dihydro-1H-benzo[d]imidazol-5-yl)-2,2-dimethyl-2H-chromen-7-yl)picolinamide], at p300, the greatest degradation seen (Dmax) was > 80% and the 50% degradation concentration (DC50) was in the range of 10 to 99 nM. Besides, at CBP, the DC50 was > 1000 nM and the Dmax was < 20%.

`Cc1cc2c(N3CCCc4cc(-c5ccc(C(=O)NCC#Cc6cc7c(C8CCC(=O)NC8=O)nccc7o6)nc5)nnc43)cc(C3CCOCC3)cc2n(C)c1=O` (stereo not shown) [Example B84, 5-(8-(1,3-dimethyl-2-oxo-7-(tetrahydro-2H-pyran-4-yl)-1,2-dihydroquinolin-5-yl)-5,6,7,8-tetrahydropyrido[2,3-c]pyridazin-3-yl)-N-(3-(4-(2,6-dioxopiperidin-3-yl)furo [3,2-c]pyridin-2-yl)prop-2-yn-1-yl) picolinamide]: at p300, the maximal degradation (Dmax) is > 80% and the DC50 was < 1 nM. Besides, at CBP, the DC50 lay in the range of 100 to 999 nM and the Dmax is < 20%.

On p300, `Cn1c(=O)n(C)c2cc(N3CCOc4nc(-c5ccc(C(=O)NCC#Cc6ccc7occ(C89CC(C8)C(=O)NC9=O)c7c6)nc5)ncc43)ccc21` [Example A178, 5-(5-(1,3-dimethyl-2-oxo-2,3-dihydro-1H-benzo[d]imidazol-5-yl)-6,7-dihydro-5H-pyrimido[4,5-b][1,4]oxazin-2-yl)-N-(3-(3-(2,4-dioxo-3-azabicyclo [3.1.1]heptan-1-yl)benzofuran-5-yl)prop-2-yn-1-yl)picolinamide] showed a Dmax of 20 to 39% and a DC50 of 10 to 99 nM. On CBP, the 50% degradation concentration (DC50) is > 1000 nM and the Dmax was < 20%.

`Cn1c(=O)n(C)c2cc(C3=CC(C)(C)Oc4cc(-c5ccc(C(=O)NCC#Cc6cc7c(C8CCC(=O)NC8=O)cccc7o6)nc5)ncc43)ccc21` (stereo not shown) [Example A259, 5-(4-(1,3-dimethyl-2-oxo-2,3-dihydro-1H-benzo[d]imidazol-5-yl)-2,2-dimethyl-2H-pyrano[3,2-c]pyridin-7-yl)-N-(3-(4-(2,6-dioxopiperidin-3-yl)benzofuran-2-yl)prop-2-yn-1-yl)picolinamide]: the Dmax at p300 was > 80%; on CBP, < 20%. Further, the half-maximal degradation concentration (DC50) at p300 was 1 to 9.9 nM; at CBP, > 1000 nM.

Regarding `Cc1cc2c(N3CCOc4cc(-c5ccc(C(=O)NCC#Cc6ccc7occ(C8CCC(=O)NC8=O)c7c6)nc5)ncc43)cccc2n(C)c1=O` (stereo not shown) [Example B77, 5-(4-(1,3-dimethyl-2-oxo-1,2-dihydroquinolin-5-yl)-3,4-dihydro-2H-pyrido[4,3-b][1,4]oxazin-7-yl)-N-(3-(3-(2,6-dioxopiperidin-3-yl)benzofuran-5-yl)prop-2-yn-1-yl)picolinamide], on p300, the Dmax is > 80% and the DC50 was 1 to 9.9 nM. Further, on CBP, the half-maximal degradation concentration (DC50) was > 1000 nM and the Dmax was < 20%.

`Cc1cc(-c2ccc3c(c2)n(C)c(=O)n3C)c2cnc(-c3ccc(C(=O)NCC#Cc4ccc5occ(C6CCC(=O)NC6=O)c5c4)nc3)cc2c1` (stereo not shown) [Example A84, 5-(8-(1,3-dimethyl-2-oxo-2,3-dihydro-1H-benzo[d]imidazol-5-yl)-6-methylisoquinolin-3-yl)-N-(3-(3-(2,6-dioxo-piperidin-3-yl)benzofuran-5-yl)prop-2-yn-1-yl) picolinamide]: at p300, the Dmax was > 80% and the DC50 fell in the range of 10 to 99 nM. At CBP, the DC50 is > 1000 nM and the Dmax was < 20%.

As for `Cn1c(=O)n(C)c2c(N3CC4CCC(C3)O4)nc(-c3cccc4cc(-c5ccc(C(=O)NCC#Cc6ccc7occ(C8CCC(=O)NC8=O)c7c6)nc5)ncc34)cc21` (stereo not shown) [Example A86, 5-(8-(4-(8-oxa-3-azabicyclo[3.2.1]octan-3-yl)-1,3-dimethyl-2-oxo-2,3-dihydro-1H-imidazo[4,5-c]pyridin-6-yl)isoquinolin-3-yl)-N-(3-(3-(2,6-dioxo-piperidin-3-yl)benzofuran-5-yl)prop-2-yn-1-yl)picolinamide], the values for the Dmax at p300 and at CBP were > 80% and < 20%, respectively. For the same compound, the half-maximal degradation concentration (DC50) on p300 was 1 to 9.9 nM; at CBP, > 1000 nM.

Values taken from patent US20250114345A1, “COMPOUNDS AND COMPOSITIONS AS CBP/P300 DEGRADERS AND USES THEREOF” (Oncopia Therapeutics, Inc. d/b/a/ SK Life Science Labs, priority 2023, published 2025).
